PubChem BioAssay (NCI)
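GI50 = concentration required for 50% inhibition of growth. TGI: total growth inhibition.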

How the values were obtained:
Assay in all cases: growth of human tumour cells (NCI), 384-well format
SF-295 CNS = system: SF-295 CNS
IGROV1 ovarian = system: IGROV1 ovarian
UO-31 renal = system: UO-31 renal
SK-OV-3 ovarian = system: SK-OV-3 ovarian
A549 NSCLC = system: A549 NSCLC
HOP-92 NSCLC = system: HOP-92 NSCLC
SNB-19 CNS = system: SNB-19 CNS
MDA-MB-468 breast = system: MDA-MB-468 breast
MALME-3M melanoma = system: MALME-3M melanoma
HT29 colon = system: HT29 colon
UACC-257 melanoma = system: UACC-257 melanoma
RXF 393 renal = system: RXF 393 renal
EKVX NSCLC = system: EKVX NSCLC
SN12C renal = system: SN12C renal
CCRF-CEM leukemia = system: CCRF-CEM leukemia
LOX IMVI melanoma = system: LOX IMVI melanoma
SK-MEL-28 melanoma = system: SK-MEL-28 melanoma
CAKI-1 renal = system: CAKI-1 renal
OVCAR-8 ovarian = system: OVCAR-8 ovarian
MOLT-4 leukemia = system: MOLT-4 leukemia
HS 578T breast = system: HS 578T breast
HL-60(TB) leukemia = system: HL-60(TB) leukemia
M14 melanoma = system: M14 melanoma
SK-MEL-5 melanoma = system: SK-MEL-5 melanoma
MDA-MB-231 breast = system: MDA-MB-231 breast
OVCAR-3 ovarian = system: OVCAR-3 ovarian
U251 glioblastoma = system: U251 glioblastoma
MCF7 breast = system: MCF7 breast
COLO 205 colon = system: COLO 205 colon
HCC-2998 colon = system: HCC-2998 colon
KM12 colon = system: KM12 colon
A498 renal = system: A498 renal
OVCAR-5 ovarian = system: OVCAR-5 ovarian
NCI-H23 lung = system: NCI-H23 lung
786-0 renal = system: 786-0 renal
NCI-H522 lung = system: NCI-H522 lung
K-562 leukemia = system: K-562 leukemia
T-47D breast = system: T-47D breast
PC-3 prostate = system: PC-3 prostate
HCT-116 colon = system: HCT-116 colon
NCI-H460 NSCLC = system: NCI-H460 NSCLC
RPMI-8226 leukemia = system: RPMI-8226 leukemia
SF-539 CNS = system: SF-539 CNS
SF-268 CNS = system: SF-268 CNS
BT-549 breast = system: BT-549 breast
UACC-62 melanoma = system: UACC-62 melanoma
NCI/ADR-RES ovarian = system: NCI/ADR-RES ovarian
HCT-15 colon = system: HCT-15 colon
SNB-75 CNS = system: SNB-75 CNS
TK-10 renal = system: TK-10 renal
HOP-62 NSCLC = system: HOP-62 NSCLC
NCI-H322M lung = system: NCI-H322M lung
SW-620 colon = system: SW-620 colon
DU-145 prostate = system: DU-145 prostate
NCI-H226 lung = system: NCI-H226 lung
OVCAR-4 ovarian = system: OVCAR-4 ovarian
ACHN renal = system: ACHN renal
SR leukemia = system: SR leukemia

## Cc1cc(Nc2ncc3c(n2)N(C)C(=O)N(c2cc(NC(=O)c4cccc(C(F)(F)F)c4)ccc2C)C3)n(C)n1
SF-295 CNS
  GI50: 1.42 µM
  TGI: > 100 µM
IGROV1 ovarian
  GI50: < 0.01 µM
  TGI: 0.0346 µM
UO-31 renal
  GI50: 0.134 µM
  TGI: 0.312 µM
SK-OV-3 ovarian
  GI50: < 0.01 µM
  TGI: 0.0429 µM
A549 NSCLC
  GI50: 0.0179 µM
  TGI: 0.162 µM
HOP-92 NSCLC
  GI50: 0.0173 µM
  TGI: 0.0746 µM
SNB-19 CNS
  GI50: 0.199 µM
  TGI: > 100 µM
MDA-MB-468 breast
  GI50: 0.0251 µM
  TGI: 0.0982 µM
MALME-3M melanoma
  GI50: < 0.01 µM
HT29 colon
  GI50: 0.0164 µM
  TGI: 0.312 µM
UACC-257 melanoma
  GI50: 0.0338 µM
  TGI: 0.311 µM
RXF 393 renal
  GI50: < 0.01 µM
  TGI: 0.0871 µM
EKVX NSCLC
  GI50: 0.0408 µM
  TGI: 0.305 µM
SN12C renal
  GI50: 0.0111 µM
  TGI: 0.0593 µM
CCRF-CEM leukemia
  GI50: 1.34 µM
  TGI: 3.42 µM
LOX IMVI melanoma
  GI50: < 0.01 µM
  TGI: 0.011 µM
SK-MEL-28 melanoma
  GI50: 0.0162 µM
  TGI: 0.083 µM
CAKI-1 renal
  GI50: < 0.01 µM
  TGI: 0.0205 µM
OVCAR-8 ovarian
  GI50: 0.0341 µM
  TGI: 0.337 µM
MOLT-4 leukemia
  GI50: 0.0221 µM
  TGI: 1.36 µM
HS 578T breast
  GI50: 0.0156 µM
  TGI: 0.0543 µM
HL-60(TB) leukemia
  GI50: 0.0216 µM
  TGI: 0.107 µM
M14 melanoma
  GI50: < 0.01 µM
  TGI: 0.0288 µM
SK-MEL-5 melanoma
  GI50: 0.0323 µM
  TGI: 8.42 µM
MDA-MB-231 breast
  GI50: 0.0113 µM
  TGI: 0.0871 µM
OVCAR-3 ovarian
  GI50: 0.0243 µM
  TGI: 0.198 µM
U251 glioblastoma
  GI50: 0.0258 µM
  TGI: 1.2 µM
MCF7 breast
  GI50: 0.88 µM
  TGI: > 100 µM
COLO 205 colon
  GI50: < 0.01 µM
  TGI: 0.128 µM
HCC-2998 colon
  GI50: 0.0458 µM
  TGI: 1.09 µM
KM12 colon
  GI50: 0.513 µM
  TGI: > 100 µM
A498 renal
  GI50: 0.0142 µM
  TGI: 0.105 µM
OVCAR-5 ovarian
  GI50: 0.0342 µM
  TGI: 0.254 µM
NCI-H23 lung
  GI50: 0.0244 µM
  TGI: 0.189 µM
786-0 renal
  GI50: 0.0401 µM
  TGI: 0.302 µM
NCI-H522 lung
  GI50: < 0.01 µM
  TGI: 0.0313 µM
K-562 leukemia
  GI50: < 0.01 µM
T-47D breast
  GI50: 0.0257 µM
  TGI: 0.0751 µM
PC-3 prostate
  GI50: 4.25 µM
  TGI: > 100 µM
HCT-116 colon
  GI50: 0.0272 µM
  TGI: 0.147 µM
NCI-H460 NSCLC
  GI50: 0.052 µM
  TGI: > 100 µM
RPMI-8226 leukemia
  GI50: 0.286 µM
  TGI: 1.79 µM
SF-539 CNS
  GI50: 0.0726 µM
  TGI: 0.577 µM
SF-268 CNS
  GI50: < 0.01 µM
  TGI: 0.0136 µM
BT-549 breast
  GI50: 0.0199 µM
  TGI: 0.0733 µM
UACC-62 melanoma
  GI50: < 0.01 µM
  TGI: 0.015 µM
NCI/ADR-RES ovarian
  GI50: 1.65 µM
  TGI: 3.24 µM
HCT-15 colon
  GI50: 0.224 µM
  TGI: 1.39 µM
SNB-75 CNS
  GI50: 0.0189 µM
  TGI: 0.0779 µM
TK-10 renal
  GI50: 0.0288 µM
  TGI: 0.12 µM
HOP-62 NSCLC
  GI50: 0.0876 µM
  TGI: 0.534 µM
NCI-H322M lung
  GI50: 0.022 µM
  TGI: 0.137 µM
SW-620 colon
  GI50: 0.0699 µM
  TGI: 1.28 µM

## Cc1nc(-c2nc(-c3ccc(OC(F)(F)F)cc3)no2)nn1Cc1cccc(N2CCC(S(C)(=O)=O)CC2)c1
SF-295 CNS
  GI50: 0.0932 µM
  TGI: 37 µM
UO-31 renal
  GI50: 7.92 µM
  TGI: 36.6 µM
A549 NSCLC
  GI50: 2.61 µM
  TGI: 33.9 µM
HOP-92 NSCLC
  GI50: 0.567 µM
  TGI: 46.2 µM
SNB-19 CNS
  GI50: 47.2 µM
  TGI: > 100 µM
MDA-MB-468 breast
  GI50: < 0.01 µM
  TGI: < 0.01 µM
MALME-3M melanoma
  GI50: 23.6 µM
  TGI: 56.6 µM
UACC-257 melanoma
  GI50: 0.0565 µM
  TGI: 0.827 µM
RXF 393 renal
  GI50: < 0.01 µM
  TGI: < 0.01 µM
SN12C renal
  GI50: 20.4 µM
  TGI: > 100 µM
CCRF-CEM leukemia
  GI50: < 0.01 µM
  TGI: 3.59 µM
DU-145 prostate
  GI50: 29.4 µM
  TGI: > 100 µM
LOX IMVI melanoma
  GI50: 0.0479 µM
  TGI: > 100 µM
SK-MEL-28 melanoma
  GI50: 28 µM
  TGI: 80.9 µM
NCI-H226 lung
  GI50: 0.664 µM
  TGI: 39.5 µM
CAKI-1 renal
  GI50: 4.66 µM
  TGI: 71.1 µM
OVCAR-8 ovarian
  GI50: < 0.01 µM
  TGI: 19.6 µM
MOLT-4 leukemia
  GI50: 0.0271 µM
  TGI: 0.208 µM
HL-60(TB) leukemia
  GI50: 0.156 µM
  TGI: 0.29 µM
SK-MEL-5 melanoma
  GI50: < 0.01 µM
  TGI: 11.8 µM
OVCAR-3 ovarian
  GI50: 5.09 µM
  TGI: > 100 µM
MCF7 breast
  GI50: 0.221 µM
  TGI: 50.8 µM
OVCAR-5 ovarian
  GI50: 86 µM
  TGI: > 100 µM
NCI-H23 lung
  GI50: < 0.01 µM
  TGI: < 0.01 µM
NCI-H522 lung
  GI50: 1.08 µM
  TGI: 17.6 µM
K-562 leukemia
  GI50: < 0.01 µM
  TGI: > 100 µM
T-47D breast
  GI50: < 0.01 µM
  TGI: 23.4 µM
PC-3 prostate
  GI50: 17.3 µM
  TGI: > 100 µM
HCT-116 colon
  GI50: < 0.01 µM
  TGI: 2.82 µM
NCI-H460 NSCLC
  GI50: < 0.01 µM
  TGI: 0.0183 µM
RPMI-8226 leukemia
  GI50: < 0.01 µM
  TGI: 1.03 µM
BT-549 breast
  GI50: 2.1 µM
  TGI: 26.2 µM
OVCAR-4 ovarian
  GI50: 0.292 µM
  TGI: 24.8 µM
NCI/ADR-RES ovarian
  GI50: < 0.01 µM
  TGI: 0.0515 µM
ACHN renal
  GI50: 10.4 µM
  TGI: 34.6 µM
HCT-15 colon
  GI50: 6.19 µM
  TGI: > 100 µM
TK-10 renal
  GI50: 8.15 µM
  TGI: 78.8 µM
HOP-62 NSCLC
  GI50: < 0.01 µM
  TGI: 20.6 µM
NCI-H322M lung
  GI50: 0.0149 µM
  TGI: 16.4 µM
SW-620 colon
  GI50: 11.5 µM
  TGI: > 100 µM
SR leukemia
  GI50: < 0.01 µM
  TGI: < 0.01 µM
